Paper PMC9549809, “In vivo behavior of [^64Cu]NOTA-terpyridine platinum, a novel chemo-radio-theranostic agent for imaging, and therapy of colorectal cancer” (Frontiers in Medicine, 2022)
Read-outs that look alike come from different tables or passages of the source.

Tests used:
HCT116 cells = test system: HCT116 cells; parameters: method as in PMID 34578470; conditions: cited from earlier work
tumor = test system: tumor; parameters: method as in PMID 24337603; conditions: cited from earlier work
HCT116 tumor [1] = experiment: Oxaliplatin in the same HCT116 mouse model (previous study); format: in vivo, nude mice
HCT116 tumor [2] = conditions: cited from earlier work
plasma protein = conditions: 24 h; cited from earlier work

For `CC(=O)[O-].CC(=O)[O-].[64Cu+2]` [^64Cu(OAc)2], which “nuclear accumulation relative to ^64Cu-NOTA-C3-TP” value (HCT116 cells) is on record?
Its value is “significantly lower”.

What about the tumor uptake (tumor; 15 min post-injection) of the same compound?
Its tumor uptake is 1.28 ± 0.13 %ID/g.

And the tumor uptake (tumor; 2 h post-injection)?
Its tumor uptake is 2.76 ± 0.63 %ID/g.

And the tumor uptake (tumor; 16 h)?
Its tumor uptake is 1.28 ± 0.07 %ID/g.

Which “times more platinum drug in the tumor than with [^64Cu]NOTA-C3-TP” value (HCT116 tumor [1]; 48 h) does the source give for `O=C1[O][Pt]2([NH][C@@H]3CCCC[C@H]3[NH]2)[O]C1=O` [oxaliplatin] here?
Its value is 333 times.

What about the “plasma concentration, times higher than [^64Cu]NOTA-C3-TP” value (HCT116 tumor [1]; 48 h post-injection, injected dose 1,250 times higher) of the same compound?
The value was “about 6 times”.

And the “quantity measured in the tumor” value (HCT116 tumor [2]; 10 mg/kg (25 nmol/g mouse), 48 h post-injection)?
The value was 0.3 nmol/g.

And the “quantity in tumor as % of the injected dose” value (HCT116 tumor [2]; 10 mg/kg, 48 h post-injection)?
The value was 1.2%.

And the “concentration in the tumor” value (HCT116 tumor [2]; 48 h post-injection)?
Its value is 0.12 μg/g of tumor.

What about the “EF, oxaliplatin plus 15 Gy external beam vs oxaliplatin alone (TGD)” value (HCT116 tumor [2]; same mouse model, irradiated 48 h post-injection) of the same compound?
The value was 5.18.

What about the “bound to plasma protein” value (plasma protein) of the same compound?
The value was 98%.
